Measurements as given in ChEMBL document CHEMBL5291721, “A preclinical secondary pharmacology resource illuminates target-adverse drug reaction associations of marketed drugs” (Nat Commun, 2023).

Tests used:
[1] = target: T1, Thromboxane A2 receptor (Homo sapiens, UniProt P21731)
T1 sequence (P21731 whole entry): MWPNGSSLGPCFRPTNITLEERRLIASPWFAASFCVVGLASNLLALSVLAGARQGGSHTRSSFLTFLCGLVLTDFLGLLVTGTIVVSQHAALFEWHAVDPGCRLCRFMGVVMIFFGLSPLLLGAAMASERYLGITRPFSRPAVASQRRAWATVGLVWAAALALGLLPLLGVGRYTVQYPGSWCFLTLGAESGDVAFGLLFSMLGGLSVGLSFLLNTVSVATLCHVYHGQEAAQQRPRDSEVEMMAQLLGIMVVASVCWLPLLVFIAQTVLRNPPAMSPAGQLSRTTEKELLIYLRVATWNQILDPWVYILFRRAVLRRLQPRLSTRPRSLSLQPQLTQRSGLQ

[2] = target: 5-hydroxytryptamine receptor 2A (Homo sapiens, UniProt P28223); format: functional, cell-based
Sequence of 5-hydroxytryptamine receptor 2A (P28223 whole entry): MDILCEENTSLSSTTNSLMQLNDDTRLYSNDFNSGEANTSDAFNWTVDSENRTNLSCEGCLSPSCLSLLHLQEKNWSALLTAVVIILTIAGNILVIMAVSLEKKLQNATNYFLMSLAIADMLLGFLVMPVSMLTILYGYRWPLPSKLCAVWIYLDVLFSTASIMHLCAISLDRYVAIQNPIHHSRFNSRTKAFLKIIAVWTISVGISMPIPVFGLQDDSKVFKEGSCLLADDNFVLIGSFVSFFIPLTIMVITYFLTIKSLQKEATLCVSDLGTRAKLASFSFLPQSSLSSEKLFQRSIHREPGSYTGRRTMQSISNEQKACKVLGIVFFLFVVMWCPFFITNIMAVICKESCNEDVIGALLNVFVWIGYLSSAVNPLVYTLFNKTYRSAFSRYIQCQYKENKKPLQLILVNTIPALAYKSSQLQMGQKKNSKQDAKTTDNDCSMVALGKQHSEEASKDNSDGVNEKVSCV

[3] = target: Kappa-type opioid receptor (Homo sapiens, UniProt P41145)
Sequence of Kappa-type opioid receptor (P41145 whole entry): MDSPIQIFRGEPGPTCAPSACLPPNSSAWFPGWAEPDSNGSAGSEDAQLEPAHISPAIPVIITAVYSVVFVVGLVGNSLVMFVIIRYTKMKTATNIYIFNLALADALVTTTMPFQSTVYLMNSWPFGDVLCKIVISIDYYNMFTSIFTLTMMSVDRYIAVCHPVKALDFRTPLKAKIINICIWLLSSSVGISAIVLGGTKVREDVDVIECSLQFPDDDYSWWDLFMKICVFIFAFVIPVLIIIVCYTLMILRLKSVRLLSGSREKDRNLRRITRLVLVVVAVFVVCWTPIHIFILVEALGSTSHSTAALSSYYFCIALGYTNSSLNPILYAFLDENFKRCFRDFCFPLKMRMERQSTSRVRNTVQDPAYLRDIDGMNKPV

[4] = target: T2, Alpha-2B adrenergic receptor (Homo sapiens, UniProt P18089)
T2 sequence (P18089 whole entry): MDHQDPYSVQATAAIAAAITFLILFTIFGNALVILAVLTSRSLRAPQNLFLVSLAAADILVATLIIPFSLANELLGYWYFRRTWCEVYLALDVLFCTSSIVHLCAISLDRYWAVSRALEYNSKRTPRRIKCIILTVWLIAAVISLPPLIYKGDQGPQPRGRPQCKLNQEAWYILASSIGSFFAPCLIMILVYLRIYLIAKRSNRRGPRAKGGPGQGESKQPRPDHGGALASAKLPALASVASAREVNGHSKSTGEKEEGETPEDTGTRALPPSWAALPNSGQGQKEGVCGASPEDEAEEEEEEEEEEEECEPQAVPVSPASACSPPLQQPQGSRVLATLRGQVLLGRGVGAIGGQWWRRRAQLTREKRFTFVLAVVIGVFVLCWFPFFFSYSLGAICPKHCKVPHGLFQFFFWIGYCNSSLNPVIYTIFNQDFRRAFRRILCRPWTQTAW

[5] = target: Adenosine receptor A2a (Homo sapiens, UniProt P29274)
Sequence of Adenosine receptor A2a (P29274 whole entry): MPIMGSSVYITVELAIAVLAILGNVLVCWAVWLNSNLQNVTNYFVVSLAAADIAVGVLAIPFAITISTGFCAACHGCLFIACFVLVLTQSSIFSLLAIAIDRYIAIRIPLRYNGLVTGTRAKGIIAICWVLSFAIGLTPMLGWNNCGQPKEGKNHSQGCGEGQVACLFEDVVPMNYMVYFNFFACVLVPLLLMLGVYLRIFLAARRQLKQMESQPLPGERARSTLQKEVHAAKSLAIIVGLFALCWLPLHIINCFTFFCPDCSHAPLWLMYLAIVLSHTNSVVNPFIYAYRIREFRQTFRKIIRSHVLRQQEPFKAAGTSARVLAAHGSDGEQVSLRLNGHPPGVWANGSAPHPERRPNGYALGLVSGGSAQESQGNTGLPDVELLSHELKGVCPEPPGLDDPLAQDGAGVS

[6] = target: T3, Glucocorticoid receptor (Homo sapiens, UniProt P04150)
T3 sequence (P04150 whole entry): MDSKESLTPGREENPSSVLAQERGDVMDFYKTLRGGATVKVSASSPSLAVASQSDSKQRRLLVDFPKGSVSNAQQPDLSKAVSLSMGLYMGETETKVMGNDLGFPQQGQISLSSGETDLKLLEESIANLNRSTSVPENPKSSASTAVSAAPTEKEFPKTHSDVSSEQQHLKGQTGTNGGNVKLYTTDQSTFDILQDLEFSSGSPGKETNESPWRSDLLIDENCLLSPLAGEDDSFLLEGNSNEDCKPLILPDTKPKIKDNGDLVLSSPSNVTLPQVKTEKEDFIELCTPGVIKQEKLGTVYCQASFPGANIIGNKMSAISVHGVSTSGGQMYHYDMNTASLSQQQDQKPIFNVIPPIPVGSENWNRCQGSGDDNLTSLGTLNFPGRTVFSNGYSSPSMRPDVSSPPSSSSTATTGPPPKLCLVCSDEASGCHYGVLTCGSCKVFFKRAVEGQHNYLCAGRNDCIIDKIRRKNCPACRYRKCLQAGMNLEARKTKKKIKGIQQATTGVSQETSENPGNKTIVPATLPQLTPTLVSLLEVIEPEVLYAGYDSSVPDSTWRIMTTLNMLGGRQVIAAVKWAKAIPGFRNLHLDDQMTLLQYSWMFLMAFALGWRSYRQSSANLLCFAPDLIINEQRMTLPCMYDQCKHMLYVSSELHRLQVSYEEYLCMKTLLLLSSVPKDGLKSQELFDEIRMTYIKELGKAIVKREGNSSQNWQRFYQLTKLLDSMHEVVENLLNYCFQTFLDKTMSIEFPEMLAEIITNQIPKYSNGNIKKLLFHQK

[7] = target: Neuronal acetylcholine receptor subunit alpha-4 (Homo sapiens, UniProt P43681)
Sequence of Neuronal acetylcholine receptor subunit alpha-4 (P43681 whole entry): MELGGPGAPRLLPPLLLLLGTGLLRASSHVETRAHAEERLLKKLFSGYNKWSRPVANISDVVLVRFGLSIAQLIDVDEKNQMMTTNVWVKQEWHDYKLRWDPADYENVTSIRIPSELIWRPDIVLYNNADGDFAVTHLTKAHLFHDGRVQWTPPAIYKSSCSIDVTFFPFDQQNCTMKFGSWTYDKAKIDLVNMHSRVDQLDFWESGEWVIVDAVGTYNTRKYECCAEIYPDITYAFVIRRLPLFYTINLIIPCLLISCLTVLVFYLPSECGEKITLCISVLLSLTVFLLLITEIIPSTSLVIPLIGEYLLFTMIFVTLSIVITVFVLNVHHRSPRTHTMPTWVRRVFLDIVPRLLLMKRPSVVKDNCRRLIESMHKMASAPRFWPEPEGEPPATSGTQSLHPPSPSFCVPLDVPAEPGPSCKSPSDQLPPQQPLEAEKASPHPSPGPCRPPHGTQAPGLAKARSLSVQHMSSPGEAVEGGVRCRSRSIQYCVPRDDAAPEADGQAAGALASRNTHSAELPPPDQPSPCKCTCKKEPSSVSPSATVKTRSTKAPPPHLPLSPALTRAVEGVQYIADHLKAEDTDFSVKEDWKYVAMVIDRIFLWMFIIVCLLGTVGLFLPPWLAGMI

[8] = target: Beta-1 adrenergic receptor (Homo sapiens, UniProt P08588); format: functional
Sequence of Beta-1 adrenergic receptor (P08588 whole entry): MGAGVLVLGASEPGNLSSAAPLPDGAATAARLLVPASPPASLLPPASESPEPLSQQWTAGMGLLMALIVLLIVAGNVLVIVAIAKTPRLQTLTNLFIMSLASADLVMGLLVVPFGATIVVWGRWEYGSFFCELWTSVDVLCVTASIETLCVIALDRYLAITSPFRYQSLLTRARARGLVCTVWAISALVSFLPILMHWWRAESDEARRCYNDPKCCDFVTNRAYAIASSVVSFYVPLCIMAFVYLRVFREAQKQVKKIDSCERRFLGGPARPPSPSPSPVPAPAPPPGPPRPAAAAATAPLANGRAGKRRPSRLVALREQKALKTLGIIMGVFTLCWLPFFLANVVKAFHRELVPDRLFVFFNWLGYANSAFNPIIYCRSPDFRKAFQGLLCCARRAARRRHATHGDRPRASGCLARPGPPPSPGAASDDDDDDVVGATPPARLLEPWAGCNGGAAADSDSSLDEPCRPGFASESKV

[9] = target: T4, 5-hydroxytryptamine receptor 1A (Homo sapiens, UniProt P08908); format: functional, cell-based
T4 sequence (P08908 whole entry): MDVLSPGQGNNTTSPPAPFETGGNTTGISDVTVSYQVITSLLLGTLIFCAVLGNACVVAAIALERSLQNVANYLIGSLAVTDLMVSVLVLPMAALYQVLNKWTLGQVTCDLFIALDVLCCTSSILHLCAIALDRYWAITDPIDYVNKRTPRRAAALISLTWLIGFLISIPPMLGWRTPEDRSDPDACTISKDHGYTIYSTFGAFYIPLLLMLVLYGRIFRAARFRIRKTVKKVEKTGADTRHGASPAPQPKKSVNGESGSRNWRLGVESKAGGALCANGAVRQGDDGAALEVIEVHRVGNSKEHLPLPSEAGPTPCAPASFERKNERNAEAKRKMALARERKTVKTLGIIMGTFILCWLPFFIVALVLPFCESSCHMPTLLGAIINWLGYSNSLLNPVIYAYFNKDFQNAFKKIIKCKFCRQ

[10] = target: T5, Gastrin/cholecystokinin type B receptor (Homo sapiens, UniProt P32239)
T5 sequence (P32239 whole entry): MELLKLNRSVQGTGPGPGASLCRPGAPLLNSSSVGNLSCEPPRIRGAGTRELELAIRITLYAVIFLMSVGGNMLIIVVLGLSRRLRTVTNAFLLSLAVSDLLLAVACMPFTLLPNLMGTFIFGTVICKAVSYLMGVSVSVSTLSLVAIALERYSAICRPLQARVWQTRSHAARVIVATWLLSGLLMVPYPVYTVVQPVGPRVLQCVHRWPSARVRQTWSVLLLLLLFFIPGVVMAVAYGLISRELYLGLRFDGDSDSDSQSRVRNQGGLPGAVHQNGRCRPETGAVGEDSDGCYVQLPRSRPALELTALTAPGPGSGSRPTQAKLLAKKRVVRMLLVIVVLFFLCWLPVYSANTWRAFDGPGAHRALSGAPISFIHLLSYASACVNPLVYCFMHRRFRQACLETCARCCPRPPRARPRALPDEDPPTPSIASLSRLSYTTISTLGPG
Further: assay procedure not described here.

| SMILES | AC50 [1] [µM] | AC50 [2] [µM] | AC50 [3] [µM] | AC50 [4] [µM] | AC50 [5] [µM] | AC50 [6] [µM] | AC50 [7] [µM] | AC50 [8] [µM] | AC50 [9] [µM] | AC50 [10] [µM] |
| --- | --- | --- | --- | --- | --- | --- | --- | --- | --- | --- |
| O=C(O)C1=C(CSc2nnnn2CS(=O)(=O)O)CS[C@@H]2[C@H](NC(=O)[C@H](O)c3ccccc3)C(=O)N12 [CEFONICID] | > 30 | > 30 | > 30 | > 30 | > 30 | > 30 | > 30 | > 30 | > 30 | > 30 |
| Cc1cc(O)c(C(=O)N[C@@H](C(=O)N[C@@H]2C(=O)N3C(C(=O)O)=C(CSc4nnnn4C)CS[C@H]23)c2ccc(O)cc2)cn1 [CEFPIRAMIDE] | > 30 | > 30 | > 30 | > 30 | > 30 | > 30 | > 30 | > 30 | > 30 | > 30 |
| Nc1nc(/C(=C/CC(=O)O)C(=O)N[C@@H]2C(=O)N3C(C(=O)O)=CCS[C@H]23)cs1 [CEFTIBUTEN] | > 30 | > 30 | > 30 | > 30 | > 30 | > 30 | > 30 | > 30 | > 30 | > 30 |
| CC(=O)OCC(=O)[C@@]12N=C(C)O[C@@H]1C[C@H]1[C@@H]3CCC4=CC(=O)C=C[C@]4(C)[C@H]3[C@@H](O)C[C@@]12C [DEFLAZACORT] | > 30 | > 30 | > 30 | > 30 | > 30 | 0.66 | > 30 | > 30 | > 30 | > 30 |
| CCCCc1ncc(/C=C(\Cc2cccs2)C(=O)O)n1Cc1ccc(C(=O)O)cc1 [EPROSARTAN] | > 10 | > 30 | > 10 | > 10 | > 10 | > 30 | > 10 | > 10 | > 10 | > 10 |
| CCCCCCOc1ccccc1C(N)=O [EXALAMIDE] | > 30 | > 30 | 9.3 | > 30 | > 30 | > 30 | > 30 | > 30 | > 30 | > 30 |
| COc1ccc(CCN(C)CCCC(C#N)(c2cc(OC)c(OC)c(OC)c2)C(C)C)cc1OC (stereo not given) [GALLOPAMIL] | > 30 | 3.6 | 2.5 | > 30 | > 30 | > 30 | > 30 | > 30 | > 30 | > 30 |
| CCC(C(=O)O)c1ccc(N2Cc3ccccc3C2=O)cc1 (stereo not given) [INDOBUFEN] | > 30 | > 30 | > 30 | > 30 | > 30 | > 30 | > 30 | > 30 | > 30 | > 30 |
| CC(C(=O)O)c1ccc(N2Cc3ccccc3C2=O)cc1 (stereo not given) [INDOPROFEN] | > 30 | > 30 | > 30 | > 30 | > 30 | > 30 | > 30 | > 30 | > 30 | > 30 |
| COC(=O)C1=C(C)NC(C)=C(C(=O)OC(C)(C)CN(C)CCC(c2ccccc2)c2ccccc2)C1c1cccc([N+](=O)[O-])c1 (stereo not given) [LERCANIDIPINE] | > 30 | > 30 | 3.8 | > 30 | > 30 | > 30 | > 30 | > 30 | > 30 | > 30 |
| CC(Oc1c(Cl)cccc1Cl)C1=NCCN1 (stereo not given) [LOFEXIDINE] | > 30 | > 30 | 22 | 0.74 | > 30 | > 30 | > 30 | > 30 | 1.1 | > 30 |
| CN1C(=O)C(O)N=C(c2ccccc2Cl)c2cc(Cl)ccc21 (stereo not given) [LORMETAZEPAM] | > 30 | > 30 | 8.1 | > 30 | > 30 | > 30 | > 30 | > 30 | > 30 | > 30 |
| CC(C)=CCC/C(C)=C/C=C/C(C)=C/C=C/C(C)=C/C=C/C=C(C)/C=C/C=C(C)/C=C/C=C(\C)CCC=C(C)C [LYCOPENE] | > 30 | > 30 | > 30 | > 30 | > 30 | > 30 | > 30 | > 30 | > 30 | > 30 |
| Cc1cccc(C(C)c2cnc[nH]2)c1C (stereo not given) [MEDETOMIDINE] | > 30 | > 30 | > 30 | 2.1 | > 30 | > 30 | > 30 | > 30 | > 30 | > 30 |
| CCOC(=O)[N-]c1cn(N2CCOCC2)n[o+]1 [MOLSIDOMINE] | > 30 | > 30 | > 30 | > 30 | > 30 | > 30 | > 30 | > 30 | > 30 | > 30 |
| O=C(O)/C=C/c1ccc(Cn2ccnc2)cc1 [OZAGREL] | > 30 | > 30 | > 30 | > 30 | > 30 | > 30 | > 30 | > 30 | > 30 | > 30 |
| Clc1ccc(CCCOCCCN2CCCCC2)cc1 [PITOLISANT] | > 30 | > 30 | > 30 | > 30 | > 30 | > 30 | > 30 | > 30 | > 30 | > 30 |
